Data as given in ChEMBL document CHEMBL3352377, “Discovery of selective and orally bioavailable protein kinase Cθ (PKCθ) inhibitors from a fragment hit” (J Med Chem, 2015).
pIC50: −log10 of the molar value.

Experiments:
[1] = target: T1, Protein kinase C theta type (Homo sapiens, UniProt Q04759)
Description: Inhibition of human recombinant PKCtheta expressed in Sf21 cells using Bio-cdc peptide substrate and ATP after 60 mins by time-resolved fluorescence in-vitro kinase assay

[2] = Permeability from apical to basolateral side in MDCK2-MDR1 cells at pH 7.4; type: ADME, cell-based, Canis lupus familiaris, MDCK-II; conditions: dog, MDCK-MDR1, pH 7.4; read-out: permeability
[3] = Unbound intrinsic clearance in mouse microsomes; type: ADME, Microsome
[4] = target: Protein kinase C alpha type (Homo sapiens, UniProt P17252)
cells = conditions: Homo sapiens, T-Blast, 24 h
Description: Inhibition of anti-CD3/anti-CD28 antibody-induced IL2 production in human T-Blast cells after 24 hrs

[5] = Unbound intrinsic clearance in rat microsomes; type: ADME, Microsome
[6] = Unbound intrinsic clearance in human microsomes; type: ADME, Microsome
[7] = Oral bioavailability in rat at 3 mg/kg; type: ADME, organism-based; conditions: in vivo
[8] = Half life in rat at 1 mg/kg, iv or 3 mg/kg, po; type: ADME, organism-based; conditions: in vivo
[9] = target: Protein kinase C beta type (Homo sapiens, UniProt P05771); assay: Inhibition of human recombinant PKCbeta expressed in Sf21 cells using Bio-cdc peptide substrate and ATP after 60 mins by time-resolved fluorescence in-vitro kinase assay
[10] = Cmax in rat at 1 mg/kg, iv or 3 mg/kg, po; type: ADME, organism-based; conditions: in vivo
[11] = target: Protein kinase C delta type (Homo sapiens, UniProt Q05655); assay: Inhibition of human recombinant PKCdelta expressed in Sf21 cells using Bio-cdc peptide substrate and ATP after 60 mins by time-resolved fluorescence in-vitro kinase assay
[12] = Plasma clearance in rat at 1 mg/kg, iv or 3 mg/kg, po; type: ADME, organism-based
[13] = Inhibition of human recombinant […] expressed in Sf21 cells using Bio-cdc peptide substrate and ATP after 60 mins by time-resolved fluorescence in-vitro kinase assay
[14] = target: T2, Protein kinase C epsilon type (Homo sapiens, UniProt Q02156); assay: Inhibition of human recombinant PKCepsilon expressed in Sf21 cells using Bio-cdc peptide substrate and ATP after 60 mins by time-resolved fluorescence in-vitro kinase assay
T2 sequence (Q02156 whole entry): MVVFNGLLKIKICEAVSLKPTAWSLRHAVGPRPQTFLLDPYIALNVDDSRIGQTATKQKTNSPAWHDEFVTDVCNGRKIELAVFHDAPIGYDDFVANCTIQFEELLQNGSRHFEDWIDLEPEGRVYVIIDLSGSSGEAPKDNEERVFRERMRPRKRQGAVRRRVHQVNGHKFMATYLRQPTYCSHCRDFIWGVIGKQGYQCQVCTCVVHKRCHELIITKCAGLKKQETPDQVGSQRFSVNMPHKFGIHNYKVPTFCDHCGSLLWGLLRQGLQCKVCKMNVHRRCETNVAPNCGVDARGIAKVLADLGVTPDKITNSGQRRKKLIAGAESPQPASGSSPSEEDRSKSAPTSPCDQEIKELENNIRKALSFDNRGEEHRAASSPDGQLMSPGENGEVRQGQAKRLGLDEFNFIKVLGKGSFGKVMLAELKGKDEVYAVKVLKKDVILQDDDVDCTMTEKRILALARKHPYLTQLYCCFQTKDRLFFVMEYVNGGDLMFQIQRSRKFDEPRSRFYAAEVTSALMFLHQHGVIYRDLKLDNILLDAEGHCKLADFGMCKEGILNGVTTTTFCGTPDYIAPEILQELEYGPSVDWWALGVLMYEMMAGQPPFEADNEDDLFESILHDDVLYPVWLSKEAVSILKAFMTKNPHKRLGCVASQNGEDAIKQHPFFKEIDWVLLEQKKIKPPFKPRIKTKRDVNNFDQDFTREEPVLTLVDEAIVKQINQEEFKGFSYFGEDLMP

[15] = target: T3, Protein kinase C zeta type (Homo sapiens, UniProt Q05513); assay: Inhibition of human recombinant PKCzeta expressed in Sf21 cells using Bio-cdc peptide substrate and ATP after 60 mins by time-resolved fluorescence in-vitro kinase assay
T3 sequence (Q05513 whole entry): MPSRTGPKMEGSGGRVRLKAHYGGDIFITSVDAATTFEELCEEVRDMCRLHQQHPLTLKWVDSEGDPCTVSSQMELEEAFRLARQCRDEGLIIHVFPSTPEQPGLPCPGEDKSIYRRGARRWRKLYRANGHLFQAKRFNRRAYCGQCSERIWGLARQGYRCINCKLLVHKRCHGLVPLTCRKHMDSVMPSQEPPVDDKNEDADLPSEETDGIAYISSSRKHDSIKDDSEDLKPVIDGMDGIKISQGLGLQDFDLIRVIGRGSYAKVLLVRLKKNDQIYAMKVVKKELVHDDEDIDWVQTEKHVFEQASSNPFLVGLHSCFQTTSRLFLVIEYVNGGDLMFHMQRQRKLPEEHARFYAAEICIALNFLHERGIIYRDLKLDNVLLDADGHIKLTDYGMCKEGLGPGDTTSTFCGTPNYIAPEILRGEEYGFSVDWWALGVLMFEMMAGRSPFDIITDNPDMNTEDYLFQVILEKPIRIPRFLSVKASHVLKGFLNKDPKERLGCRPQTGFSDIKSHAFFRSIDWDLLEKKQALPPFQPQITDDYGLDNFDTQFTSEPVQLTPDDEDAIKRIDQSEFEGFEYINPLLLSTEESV

[16] = target: Protein kinase C gamma type (Homo sapiens, UniProt P05129); assay: Inhibition of human recombinant PKCgamma expressed in Sf21 cells using Bio-cdc peptide substrate and ATP after 60 mins by time-resolved fluorescence in-vitro kinase assay
[17] = AUC in rat at 1 mg/kg, iv or 3 mg/kg, po; type: ADME, organism-based; conditions: plasma
[18] = target: T1, Protein kinase C theta type; assay: Inhibition of human recombinant PKCtheta by TR-FRET assay
Focal adhesion kinase 1 = Focal adhesion kinase 1 (Homo sapiens, UniProt Q05397); assay: Inhibition of FAK (unknown origin) by TR-FRET assay
Chain of Focal adhesion kinase 1 (Q05397 whole entry): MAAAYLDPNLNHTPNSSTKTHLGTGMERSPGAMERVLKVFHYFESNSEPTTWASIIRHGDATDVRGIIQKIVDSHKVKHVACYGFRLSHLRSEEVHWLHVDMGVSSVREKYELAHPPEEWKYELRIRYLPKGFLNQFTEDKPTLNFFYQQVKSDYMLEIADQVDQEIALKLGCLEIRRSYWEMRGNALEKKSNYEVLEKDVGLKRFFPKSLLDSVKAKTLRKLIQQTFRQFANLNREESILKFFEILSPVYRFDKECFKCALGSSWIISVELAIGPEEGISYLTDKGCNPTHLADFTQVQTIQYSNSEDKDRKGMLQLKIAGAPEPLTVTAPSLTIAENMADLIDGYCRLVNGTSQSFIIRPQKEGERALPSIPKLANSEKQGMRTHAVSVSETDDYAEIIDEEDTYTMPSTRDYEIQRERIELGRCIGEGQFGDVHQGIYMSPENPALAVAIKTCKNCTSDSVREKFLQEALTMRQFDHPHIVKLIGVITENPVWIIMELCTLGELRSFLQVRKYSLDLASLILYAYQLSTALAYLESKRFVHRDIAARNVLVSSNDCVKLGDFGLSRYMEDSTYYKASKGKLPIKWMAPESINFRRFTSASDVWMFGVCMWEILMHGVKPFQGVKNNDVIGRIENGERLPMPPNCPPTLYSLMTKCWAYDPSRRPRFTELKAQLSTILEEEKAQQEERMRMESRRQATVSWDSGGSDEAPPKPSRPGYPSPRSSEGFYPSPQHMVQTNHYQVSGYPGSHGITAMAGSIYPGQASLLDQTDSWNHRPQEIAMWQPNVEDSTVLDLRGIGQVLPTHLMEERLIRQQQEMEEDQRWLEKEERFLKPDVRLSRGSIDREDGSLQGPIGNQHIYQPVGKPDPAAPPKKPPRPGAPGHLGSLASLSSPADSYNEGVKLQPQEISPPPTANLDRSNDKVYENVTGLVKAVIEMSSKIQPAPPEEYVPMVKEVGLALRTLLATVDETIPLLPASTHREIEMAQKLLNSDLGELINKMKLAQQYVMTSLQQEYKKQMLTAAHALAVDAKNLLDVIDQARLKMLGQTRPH

T1 sequence (Q04759 whole entry): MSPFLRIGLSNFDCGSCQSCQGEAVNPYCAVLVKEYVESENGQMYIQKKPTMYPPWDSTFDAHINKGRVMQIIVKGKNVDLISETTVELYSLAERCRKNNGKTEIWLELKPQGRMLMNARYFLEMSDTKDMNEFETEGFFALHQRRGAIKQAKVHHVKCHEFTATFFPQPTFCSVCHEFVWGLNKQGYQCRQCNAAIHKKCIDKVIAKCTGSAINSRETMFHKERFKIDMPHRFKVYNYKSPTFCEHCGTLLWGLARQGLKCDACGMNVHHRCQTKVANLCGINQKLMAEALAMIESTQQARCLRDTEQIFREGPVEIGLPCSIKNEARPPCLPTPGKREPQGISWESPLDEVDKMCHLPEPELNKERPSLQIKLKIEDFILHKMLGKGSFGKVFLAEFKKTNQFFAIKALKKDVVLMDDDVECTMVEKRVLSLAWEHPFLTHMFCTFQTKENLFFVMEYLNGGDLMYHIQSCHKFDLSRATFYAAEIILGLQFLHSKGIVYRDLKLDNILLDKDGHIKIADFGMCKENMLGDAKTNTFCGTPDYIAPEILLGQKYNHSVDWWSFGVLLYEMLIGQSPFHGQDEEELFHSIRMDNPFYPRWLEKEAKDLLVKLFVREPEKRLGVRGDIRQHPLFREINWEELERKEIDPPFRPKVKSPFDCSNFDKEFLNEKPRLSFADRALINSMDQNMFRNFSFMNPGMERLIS
Chain of Protein kinase C beta type (P05771 whole entry): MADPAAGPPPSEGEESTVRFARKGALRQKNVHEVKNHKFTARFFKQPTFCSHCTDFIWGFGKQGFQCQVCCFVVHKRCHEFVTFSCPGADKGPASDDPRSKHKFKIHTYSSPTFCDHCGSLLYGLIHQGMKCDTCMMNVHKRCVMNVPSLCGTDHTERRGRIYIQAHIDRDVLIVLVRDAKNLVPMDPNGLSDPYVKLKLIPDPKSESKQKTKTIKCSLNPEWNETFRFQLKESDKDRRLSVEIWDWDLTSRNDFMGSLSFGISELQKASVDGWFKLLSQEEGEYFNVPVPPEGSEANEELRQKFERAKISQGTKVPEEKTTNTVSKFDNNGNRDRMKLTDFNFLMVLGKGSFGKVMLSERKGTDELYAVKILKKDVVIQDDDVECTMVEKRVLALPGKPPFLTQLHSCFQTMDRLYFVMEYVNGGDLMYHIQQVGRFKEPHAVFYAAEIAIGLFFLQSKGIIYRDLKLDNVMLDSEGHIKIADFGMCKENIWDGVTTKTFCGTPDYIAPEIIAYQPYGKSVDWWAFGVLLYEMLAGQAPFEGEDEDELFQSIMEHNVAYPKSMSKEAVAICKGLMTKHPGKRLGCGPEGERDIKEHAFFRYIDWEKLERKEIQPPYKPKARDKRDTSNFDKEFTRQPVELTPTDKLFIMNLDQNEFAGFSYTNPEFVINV
Chain of Protein kinase C delta type (Q05655 whole entry): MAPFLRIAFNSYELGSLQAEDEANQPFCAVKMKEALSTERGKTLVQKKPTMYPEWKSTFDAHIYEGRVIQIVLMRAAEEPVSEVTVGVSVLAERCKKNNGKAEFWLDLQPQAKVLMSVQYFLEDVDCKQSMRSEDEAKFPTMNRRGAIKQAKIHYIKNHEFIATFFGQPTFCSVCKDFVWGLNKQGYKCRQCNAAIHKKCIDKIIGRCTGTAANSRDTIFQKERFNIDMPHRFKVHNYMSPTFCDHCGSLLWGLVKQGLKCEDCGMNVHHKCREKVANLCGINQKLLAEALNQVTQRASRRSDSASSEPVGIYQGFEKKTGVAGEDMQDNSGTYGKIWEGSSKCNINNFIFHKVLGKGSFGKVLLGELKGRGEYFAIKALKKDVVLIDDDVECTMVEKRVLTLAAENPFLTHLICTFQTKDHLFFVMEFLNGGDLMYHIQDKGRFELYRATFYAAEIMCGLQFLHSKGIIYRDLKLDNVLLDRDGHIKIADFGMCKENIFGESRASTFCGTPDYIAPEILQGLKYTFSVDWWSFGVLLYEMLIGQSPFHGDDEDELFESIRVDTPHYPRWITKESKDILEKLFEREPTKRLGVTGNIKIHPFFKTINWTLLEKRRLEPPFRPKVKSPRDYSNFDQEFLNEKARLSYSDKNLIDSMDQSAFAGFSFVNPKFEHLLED

pIC50 [1] | Papp A→B [2] | pIC50 [4] | pIC50 (cells) | CL free [6] | further results | Compound
6.41 | 0.16 ×10⁻⁶ cm/s | 5.52 | 5.38 | – | CL free [3]: < 73.3 mL/min/kg | Cc1cc2c(cc1NC1CNC1)N1C(=NNC(=O)[C@@H]1C)CO2
5.05 | – | – | – | – | – | O=C1CN2C(=NN1)COc1ccc(NC3CCCNCC3)cc12 (stereo not drawn)
6.72 | – | 5.52 | 6.04 | 51.7 mL/min/kg | CL free [5]: < 73.3 mL/min/kg | CC1C(=O)NN=C2COc3cc(C(F)(F)F)c(OC4CNC4)cc3N21 (stereo not drawn)
7.23 | 0.5 ×10⁻⁶ cm/s | 5.80 | 6.41 | < 46.7 mL/min/kg | CL free [5]: 81.7 mL/min/kg | CC1C(=O)NN=C2COc3cc(C(F)(F)F)c(CC4CNC4)cc3N21 (stereo not drawn)
6.00 | – | 5.27 | – | – | – | CCC1C(=O)NN=C2COc3ccc(NC4CNC4)cc3N21 (stereo not drawn)
7.31 | 0.27 ×10⁻⁶ cm/s | 5.74 | 6.92 | 90 mL/min/kg | bioavailability [7]: 5.4%; CL free [5]: 200 mL/min/kg; half-life [8]: 5.9 h; pIC50 [9]: 7.06; Cmax [10]: 5.3 ng/mL; pIC50 [11]: 6.48; clearance [12]: 81.7 mL/min/kg; pIC50 [13]: 6.07; CL free [3]: 467 mL/min/kg; pIC50 [14]: 6.34; pIC50 [15]: 5.07; pIC50 [16]: 4.89; AUC [17]: 43 ng·h/mL | C[C@@H]1C(=O)NN=C2COc3cc(-c4ccccc4)c(NC4CNC4)cc3N21
5.46 | – | < 4.30 | – | – | – | O=C1NN=C2COc3ccc(NC4CNC4)cc3N2C1C1CC1 (stereo not drawn)
4.51 | – | – | – | – | – | O=C1CN2C(=NN1)COc1ccc(NCC3CCNCC3)cc12
4.80 | – | – | – | – | – | CN(C)Cc1ccc2c(c1)OCC1=NNC(=O)CN12
5.48 | – | – | – | – | – | O=C1CN2C(=NN1)COc1ccc(NC3CCNC3)cc12 (stereo not drawn)
6.89 | 0.28 ×10⁻⁶ cm/s | 5.66 | 6.47 | < 33 mL/min/kg | CL free [5]: 88.3 mL/min/kg | CC(C)c1cc2c(cc1NC1CNC1)N1C(=NNC(=O)C1C)CO2 (stereo not drawn)
4.42 | – | – | – | – | – | O=C1CN2C(=NN1)COc1ccc(NC3CCC3)cc12
6.96 | 0.31 ×10⁻⁶ cm/s | 5.39 | 6.37 | < 33 mL/min/kg | CL free [5]: 61.7 mL/min/kg | Cc1cc2c(cc1NC1CNC1)N1C(=NNC(=O)C1C)CO2 (stereo not drawn)
4.85 | – | – | – | – | – | O=C1CN2C(=NN1)COc1ccc(NC3CCCNC3)cc12 (stereo not drawn)
4.72 | – | – | – | – | – | O=C1CN2C(=NN1)COc1ccc(NC(=O)C3CNC3)cc12
6.64 | 0.42 ×10⁻⁶ cm/s | 5.03 | 5.57 | 33 mL/min/kg | CL free [5]: 48.3 mL/min/kg | CC1C(=O)NN=C2COc3ccc(NC4CNC4)cc3N21 (stereo not drawn)
3.34 | – | < 4.30 | – | – | pIC50 [18]: 4.72; pIC50 (Focal adhesion kinase 1): 3.81 | O=C1CN2C(=NN1)COc1ccccc12

pIC50 [1] | Papp A→B [2] | pIC50 [4] | pIC50 (cells) | CL free [6] | further results | Compound
4.68 | – | – | – | – | – | O=C1CN2C(=NN1)COc1ccc(NC3CCNCC3)cc12
5.89 | – | 5.15 | – | – | – | O=C1CN2C(=NN1)COc1ccc(NC3CNC3)cc12
– | 0.25 ×10⁻⁶ cm/s | 5.54 | 6.00 | 85 mL/min/kg | CL free [5]: 118 mL/min/kg; CL free [3]: < 120 mL/min/kg | C[C@H]1C(=O)NN=C2COc3cc(C(F)(F)F)c(NC4CNC4)cc3N21
4.77 | – | – | – | – | – | O=C1CN2C(=NN1)COc1ccc(NCC3CNC3)cc12
4.34 | – | – | – | – | – | CN(C)CC(=O)Nc1ccc2c(c1)N1CC(=O)NN=C1CO2
4.74 | – | – | – | – | – | CC(N)CNc1ccc2c(c1)N1CC(=O)NN=C1CO2 (stereo not drawn)
< 4.30 | – | – | – | – | – | O=C1CN2C(=NN1)COc1ccc(NC(=O)CC3CCNCC3)cc12
4.70 | – | – | – | – | – | O=C1CN2C(=NN1)COc1ccc(NCC3CCNC3)cc12 (stereo not drawn)
6.12 | 0.23 ×10⁻⁶ cm/s | 5.18 | 5.62 | 110 mL/min/kg | CL free [5]: < 103 mL/min/kg; CL free [3]: 417 mL/min/kg | C[C@H]1C(=O)NN=C2COc3cc(-c4ccccc4)c(NC4CNC4)cc3N21
7.00 | 0.86 ×10⁻⁶ cm/s | 5.16 | 6.51 | < 26.7 mL/min/kg | CL free [5]: 50 mL/min/kg | CC1C(=O)NN=C2COc3cc(F)c(NC4CNC4)cc3N21 (stereo not drawn)
– | 0.85 ×10⁻⁶ cm/s | 5.66 | 6.64 | 56.7 mL/min/kg | CL free [5]: < 67 mL/min/kg | CC1C(=O)NN=C2COc3cc(C(F)(F)F)c(NC4CNC4)cc3N21 (stereo not drawn)
4.34 | – | – | – | – | – | O=C1CN2C(=NN1)COc1ccc(NC(=O)C3CCNC3)cc12 (stereo not drawn)
< 4.30 | – | < 4.30 | – | – | – | O=C1NN=C2COc3ccc(NC4CNC4)cc3N2C1c1ccccc1 (stereo not drawn)
7.26 | 0.35 ×10⁻⁶ cm/s | 5.29 | 6.57 | 40 mL/min/kg | bioavailability [7]: 9.2%; half-life [8]: 3 h; pIC50 [9]: 6.28; Cmax [10]: 8.7 ng/mL; pIC50 [11]: 6.12; clearance [12]: 81.7 mL/min/kg; pIC50 [16]: 4.64; AUC [17]: 60 ng·h/mL | Cc1cc2c(cc1NC1CNC1)N1C(=NNC(=O)[C@H]1C)CO2
5.46 | – | – | – | – | – | O=C1CN2C(=NN1)COc1ccc(NC(=O)C3CCNCC3)cc12
< 4.30 | – | – | – | – | – | O=C1CN2C(=NN1)COc1ccc(NC3COC3)cc12
5.35 | – | – | – | – | – | CN1CCC(C(=O)Nc2ccc3c(c2)N2CC(=O)NN=C2CO3)CC1
